Consider 16 compounds from patent publication US20250281424A1 (New York Blood Center, Inc, priority 2020, published 2025).

Structures are written as SMILES. A value given as a limit tells only on which side of the number the result lay.

Data set [1] can be described thus: Human microsome stability. It counts as in vitro ADME. The source says: (§1) Certain exemplified compounds were examined for ADMET (absorption, distribution, metabolism, excretion and toxicity) profiling using conventional assays with the results shown in the Tables 3A-3C below.
Data set [2] is described as follows: Mouse microsome stability. It counts as in vitro ADME. Conditions: for half-life at 0.5 μM: Mouse microsomes, compound conc = 0.5 μM, n = 1, read-out: Mouse microsome stability Half life t1/2.
Description: as §1

For the next data set, the target named is T1, human PF4 (Homo sapiens, UniProt P02776).
T1 construct: PF4 is a 70 amino acid, lysine-rich 7.8 kDa platelet-specific protein; made in house; host or cells: Escherichia coli BL21DE3 pLysS (pT7-7) and/or Drosophila S2 cells
T1 sequence (P02776 32-101): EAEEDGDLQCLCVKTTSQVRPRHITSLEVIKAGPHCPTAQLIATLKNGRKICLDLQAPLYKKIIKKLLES
As to the kind of experiment: Inhibition of PF4 tetramer formation (BS3 cross-linking, SDS-PAGE). Conditions: for inhibition at 5 µM: 5 μM inhibitor; for inhibition at 5 µM / inhibition at 10 µM / inhibition at 1 µM / inhibition at 3 µM: read-out: % inhibition of PF4 tetramer formation at single concentration of inhibitor; for inhibition at 10 µM: 10 μM inhibitor (column A); for IC50: read-out: IC50 of PF4 tetramer formation inhibition; for inhibition at 1 µM: 1 μM inhibitor; for inhibition at 3 µM: 3 μM inhibitor (column A). Format: biochemical. The method in brief: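 Recombinant human wild-type PF4 (E. coli-expressed, heparin-purified), 10 μg/ml in PBS, incubated with compound 15 min at 37° C or 60 min at room temperature, then cross-linked with 0.2 mM BS3 for 30 min at room temperature. Reducing 12% SDS-PAGE; bands quantified as % tetramer, trimer, dimer, monomer versus compound-free control.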

On to `O=C(c1ccc2c(c1)C(=O)C(C(=O)NCCc1ccccc1)C2=O)c1ccc2c(c1)C(=O)C(C(=O)NCCc1ccccc1)C2=O` (stereo not drawn) [Example 20, 5,5′-carbonylbis(1,3-dioxo-indan-2-carboxylic acid (2-phenylethyl)-amide)], for which the half-life at 0.5 μM in data set [1] (Human microsomes, compound conc = 0.5 μM, n = 1, read-out: Human microsome stability Half life t1/2) was more than 145 min. In addition, the microsomal CLint at 0.5 μM in data set [1] (Human microsomes, compound conc = 0.5 μM, n = 1, read-out: Human microsome stability Intrinsic Clearance Clint (ml/min/mg protein)) is less than 9.5 mL/min/mg. Further, in data set [1] (human microsomes), the “intrinsic clearance in human microsome assay” value was “low intrinsic clearance” and the “stability in human microsome assay” value is given as “excellent stability”. In addition, the half-life at 0.5 μM in data set [2] is more than 145 min. For the same compound, in data set [2] (mouse microsomes), the “intrinsic clearance in mouse microsome assay” value is “low intrinsic clearance” and the “stability in mouse microsome assay” value is “excellent stability”. Further, at human PF4, the inhibition at 5 µM was found to be 83%, the inhibition at 10 µM is 92% and the IC50 was determined as 5750 nM.

`Cc1ncc2n1-c1ccc(Cl)cc1C(c1ccccc1F)=NC2` [Midazolam, midazolam, reference compound]: the “Human microsome stability Half life t1/2” value in data set [1] (Human microsomes, compound conc = 0.5 μM, n = 1) came to 4 min. For the same compound, the half-life at 0.5 μM in data set [2] was determined as 5.3 min.

As to `CC(C)(C)OC(=O)N1C[C@H](F)C[C@H]1C(=O)C1C(=O)c2ccc(-c3ccc4c(c3)C(=O)C(C(=O)[C@@H]3C[C@@H](F)CN3C(=O)OC(C)(C)C)C4=O)cc2C1=O` (stereo partly drawn) [Example 215, tert-butyl (2S,4R)-2-{2′-[(2S,4R)-1-[(tert-butoxy)carbonyl]-4-fluoropyrrolidine-2-carbonyl]-1,1′,3,3′-tetraoxo-1H,1′H,2H,2′H,3H,3′H-[5,5′-biindene]-2-carbonyl}-4-fluoropyrrolidine-1-carboxylate], the IC50 on human PF4 turned out to be 2400 nM.

In the case of `CC(C)(C)OC(=O)NCC(=O)C1C(=O)c2ccc(C(=O)c3ccc4c(c3)C(=O)C(C(=O)CNC(=O)OC(C)(C)C)C4=O)cc2C1=O` (stereo not drawn) [Example 173, tert-butyl N-(2-{5-[2-(2-{[(tert-butoxy)carbonyl]amino}acetyl)-1,3-dioxo-2,3-dihydro-1H-indene-5-carbonyl]-1,3-dioxo-2,3-dihydro-1H-inden-2-yl}-2-oxoethyl) carbamate], at human PF4, the inhibition at 5 µM was 87%, the inhibition at 10 µM was found to be 97% and the IC50 is 2200 nM.

On to `O=C(c1ccc2c(c1)C(=O)C(C(=O)NCC1CCS(=O)(=O)C1)C2=O)c1ccc2c(c1)C(=O)C(C(=O)NCC1CCS(=O)(=O)C1)C2=O` (stereo not drawn) [Example 359, N-[(1,1-dioxo-1λ^6-thiolan-3-yl)methyl]-5-(2-{[(1,1-dioxo-1λ^6-thiolan-3-yl)methyl]carbamoyl}-1,3-dioxo-2,3-dihydro-1H-indene-5-carbonyl)-1,3-dioxo-2,3-dihydro-1H-indene-2-carboxamide], for which, at human PF4, the inhibition at 1 µM amounted to 34% and the inhibition at 3 µM came to 45%.

Turning to `COCCOCCNC(=O)C1C(=O)c2ccc(Oc3ccc4c(c3)C(=O)C(C(=O)NCCOCCOC)C4=O)cc2C1=O` (stereo not drawn) [Example 291, 5-({2-[hydroxy({[2-(2-methoxyethoxy)ethyl]amino})methyl]-1,3-dioxo-2,3-dihydro-1H-inden-5-yl}oxy)-N-[2-(2-methoxyethoxy)ethyl]-1,3-dioxo-2,3-dihydro-1H-indene-2-carboxamide], at human PF4, the inhibition at 1 µM was found to be 69%, the inhibition at 3 µM came to 100% and the IC50 amounted to 1290 nM.

Take `CN(CC(=O)C1C(=O)c2ccc(Oc3ccc4c(c3)C(=O)C(C(=O)CN(C)C(=O)OC(C)(C)C)C4=O)cc2C1=O)C(=O)OC(C)(C)C` (stereo not drawn) [Example 263, tert-butyl N-[2-(5-{[2-(2-{[(tert-butoxy)carbonyl](methyl)amino}acetyl)-1,3-dioxo-2,3-dihydro-1H-inden-5-yl]oxy}-1,3-dioxo-2,3-dihydro-1H-inden-2-yl)-2-oxoethyl]-N-methylcarbamate]: at human PF4, the inhibition at 1 µM stood at 72%, the inhibition at 3 µM is 69% and the IC50 came to 2070 nM.

For `NCC(=O)C1C(=O)c2ccc(Oc3ccc4c(c3)C(=O)C(C(=O)CN)C4=O)cc2C1=O` (stereo not drawn) [Example 326, 2-(2-aminoacetyl)-5-{[2-(2-aminoacetyl)-1,3-dioxo-2,3-dihydro-1H-inden-5-yl]oxy}-2,3-dihydro-1H-indene-1,3-dione], at human PF4, the inhibition at 1 µM is 13% and the inhibition at 3 µM came to 26%.

`O=C(Cc1ccccc1)C1C(=O)c2ccc(S(=O)(=O)c3ccc4c(c3)C(=O)C(C(=O)Cc3ccccc3)C4=O)cc2C1=O` (stereo not drawn) [Example 137, 5-{[1,3-dioxo-2-(2-phenylacetyl)-2,3-dihydro-1H-inden-5-yl]sulfonyl}-2-(2-phenylacetyl)-2,3-dihydro-1H-indene-1,3-dione]: on human PF4, the inhibition at 5 µM was 80%, the inhibition at 10 µM stood at 85% and the IC50 was determined as 6000 nM.

In the case of `N[C@@H](C(=O)C1C(=O)c2ccc(S(=O)(=O)c3ccc4c(c3)C(=O)C(C(=O)[C@H](N)c3ccccc3)C4=O)cc2C1=O)c1ccccc1` (stereo partly drawn) [Example 172, 2-[(2R)-2-amino-2-phenylacetyl]-5-({2-[(2R)-2-amino-2-phenylacetyl]-1,3-dioxo-2,3-dihydro-1H-inden-5-yl}sulfonyl)-2,3-dihydro-1H-indene-1,3-dione], at human PF4, the inhibition at 5 µM was 81%, the inhibition at 10 µM was determined as 93% and the IC50 is 1600 nM.

As to `O=C(c1ccc2c(c1)C(=O)C(C(=O)[C@@H]1CCCN1C(=O)OCc1ccccc1)C2=O)c1ccc2c(c1)C(=O)C(C(=O)[C@@H]1CCCN1C(=O)OCc1ccccc1)C2=O` (stereo partly drawn) [Example 125, benzyl (2S)-2-(5-{2-[(2S)-1-[(benzyloxy)carbonyl]pyrrolidine-2-carbonyl]-1,3-dioxo-2,3-dihydro-1H-indene-5-carbonyl}-1,3-dioxo-2,3-dihydro-1H-indene-2-carbonyl)pyrrolidine-1-carboxylate], on human PF4, the inhibition at 5 µM was 87%, the inhibition at 10 µM came to 93% and the IC50 was determined as 1200 nM.

For the compound `CSCCC(=O)C1C(=O)c2ccc(Oc3ccc4c(c3)C(=O)C(C(=O)CCSC)C4=O)cc2C1=O` (stereo not drawn) [Example 276, 2-[3-(methylsulfanyl)propanoyl]-5-({2-[3-(methylsulfanyl)propanoyl]-1,3-dioxo-2,3-dihydro-1H-inden-5-yl}oxy)-2,3-dihydro-1H-indene-1,3-dione], on human PF4, the inhibition at 1 µM amounted to 12%, the inhibition at 3 µM amounted to 7% and the IC50 came out at 3000 nM.

For the compound `COCC(=O)C1C(=O)c2ccc(S(=O)(=O)c3ccc4c(c3)C(=O)C(C(=O)COC)C4=O)cc2C1=O` (stereo not drawn) [Example 377, 2-(2-methoxyacetyl)-5-{[2-(2-methoxyacetyl)-1,3-dioxo-2,3-dihydro-1H-inden-5-yl]sulfonyl}-2,3-dihydro-1H-indene-1,3-dione], on human PF4, the inhibition at 1 µM came to 26% and the inhibition at 3 µM came out at 41%.

`CC(C)CCCC(=O)C1C(=O)c2ccc(C(c3ccc4c(c3)C(=O)C(C(=O)CCCC(C)C)C4=O)(C(F)(F)F)C(F)(F)F)cc2C1=O` (stereo not drawn) [Example 194, 5-{1,1,1,3,3,3-hexafluoro-2-[2-(5-methylhexanoyl)-1,3-dioxo-2,3-dihydro-1H-inden-5-yl]propan-2-yl}-2-(5-methylhexanoyl)-2,3-dihydro-1H-indene-1,3-dione]: the IC50 on human PF4 was approximately 1500 nM.

As for `COCCOCCNCC(=O)C1C(=O)c2ccc(Oc3ccc4c(c3)C(=O)C(C(=O)CNCCOCCOC)C4=O)cc2C1=O` (stereo not drawn) [Example 394, 2-(2-{[2-(2-methoxyethoxy)ethyl]amino}acetyl)-5-{[2-(2-{[2-(2-methoxyethoxy)ethyl]amino}acetyl)-1,3-dioxo-2,3-dihydro-1H-inden-5-yl]oxy}-2,3-dihydro-1H-indene-1,3-dione], on human PF4, the inhibition at 1 µM stood at 2% and the inhibition at 3 µM was 5%.

Regarding `CCNC(=O)C1C(=O)c2ccc(C(=O)c3ccc4c(c3)C(=O)C(C(=O)NCC)C4=O)cc2C1=O` (stereo not drawn) [Example 335, N-ethyl-5-[2-(ethylcarbamoyl)-1,3-dioxo-2,3-dihydro-1H-indene-5-carbonyl]-1,3-dioxo-2,3-dihydro-1H-indene-2-carboxamide], on human PF4, the inhibition at 1 µM came to 23% and the inhibition at 3 µM was determined as 39%.

The term IC50 denotes the point on the concentration scale where inhibition reaches its midpoint.
